Measurements reported in patent US5935960A, “Pro-drugs of 5-(2-(4-(1,2-benzisothiazol-3-yl)-1-piperazinyl)ethyl)-6-chloro-1,3-dihy dro-2H-indol-2-one” (Pfizer Inc., priority 1997, dated 1999).
Structures can show the parent of a compound that is named as a salt. Where two headings read alike, the source gives them in different places.

Experiments:
5HT-2A receptor = target: T1, 5HT-2A receptor (Rattus norvegicus, UniProt P14842); assay: 5HT-2A radioligand binding (3H-ketanserin, rat frontal cortex); conditions: 3H-ketanserin 0.4 nM, pH 7.7, read-out: Radioligand Binding Results, 5HT2 (IC50)
T1 construct: rat frontal; from tissue; host or cells: rat frontal cortex
T1 sequence (P14842 whole entry): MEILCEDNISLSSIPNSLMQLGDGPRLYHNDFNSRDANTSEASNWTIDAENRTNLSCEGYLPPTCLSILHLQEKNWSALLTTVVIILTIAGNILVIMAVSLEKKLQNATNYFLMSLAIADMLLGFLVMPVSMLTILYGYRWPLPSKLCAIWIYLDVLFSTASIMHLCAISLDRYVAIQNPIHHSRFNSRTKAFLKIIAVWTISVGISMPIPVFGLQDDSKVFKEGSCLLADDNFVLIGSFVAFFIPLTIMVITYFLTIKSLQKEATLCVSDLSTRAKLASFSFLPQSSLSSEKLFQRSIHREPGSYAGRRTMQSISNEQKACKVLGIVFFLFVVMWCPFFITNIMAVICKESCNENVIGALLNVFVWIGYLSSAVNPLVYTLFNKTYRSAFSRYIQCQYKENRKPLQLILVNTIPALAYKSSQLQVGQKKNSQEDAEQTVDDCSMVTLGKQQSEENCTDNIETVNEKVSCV
Text: (§1) The compound of formula I is therefore useful in the treatment or prevention of psychotic disorders, such as schizophrenia. […] Specifically, the standard methods for determining neuroleptic activity are based on Dopamine D-2, Dopamine D-3, Dopamine D4, 5-hydroxytryptamine-1A (5-HT-1A), 5-hydroxytryptamine-2C (5-HT-2C), and 5-hydroxytryptamine-2A (5-HT-2A) receptor binding studies. Tissues or membranes used to perform these studies are derived from rat, pig, or from cell lines expressing human receptor subtypes. LTK-cells expressing the human D2Long receptor were obtained from Dr. Olivier Civelli, Oregon Health Sciences University, Portland, Oreg. Chinese hamster ovary cells (CHO) expressing the human D3 receptor were obtained from Dr. J. C. […]
(§2) The following protocol describes one possible method for determining activity for the compound of formula I. Specific assay conditions for each receptor is described in Table 1, below. […] Non-specific binding is determined by radioligand binding in the presence of a saturating excess of a known competitor for the receptor of interest (as listed in Table 1). […] Membrane-bound ligand is determined by liquid scintillation counting of the filters in Ready-Safe scintillation cocktail (for tritiated ligands), or by direct counting in a gamma counter (for [^125 .vertline.] ligands). […]

5HT-1A receptor = target: T2, 5HT-1A receptor (Rattus norvegicus, UniProt P19327); assay: 5HT-1A radioligand binding (3H-8OH-DPAT, rat cortex); conditions: 3H-8OH-DPAT 1.5 nM, pH 7.7, read-out: Radioligand Binding Results, 5HT1A (IC50)
T2 construct: rat cortex; from tissue; host or cells: rat cortex
T2 sequence (P19327 1-422): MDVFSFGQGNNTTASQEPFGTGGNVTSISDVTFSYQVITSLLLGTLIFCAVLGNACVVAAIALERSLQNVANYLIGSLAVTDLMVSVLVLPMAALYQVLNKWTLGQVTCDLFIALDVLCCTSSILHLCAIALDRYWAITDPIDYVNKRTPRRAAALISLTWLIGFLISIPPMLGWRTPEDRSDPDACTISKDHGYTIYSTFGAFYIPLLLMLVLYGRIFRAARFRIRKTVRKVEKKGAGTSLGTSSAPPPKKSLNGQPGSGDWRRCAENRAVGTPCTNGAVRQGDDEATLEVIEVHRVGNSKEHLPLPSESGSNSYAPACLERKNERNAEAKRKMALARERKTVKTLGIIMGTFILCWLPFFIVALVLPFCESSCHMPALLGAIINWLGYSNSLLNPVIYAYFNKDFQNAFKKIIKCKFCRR
Text: as §1, §2

Dopamine D-3 receptor = target: T3, Dopamine D-3 receptor (Homo sapiens, UniProt P35462); assay: Dopamine D-3 radioligand binding (3H-spiroperidol, human D3-transfected CHO cells); conditions: 3H-spiroperidol 0.1 nM, pH 7.4, read-out: Radioligand Binding Results, D3 (apparent Ki)
T3 construct: expressed in transfected cells; host or cells: CHO cells (from Dr. J. C. Schwartz, INSERM, Paris)
T3 sequence (P35462 whole entry): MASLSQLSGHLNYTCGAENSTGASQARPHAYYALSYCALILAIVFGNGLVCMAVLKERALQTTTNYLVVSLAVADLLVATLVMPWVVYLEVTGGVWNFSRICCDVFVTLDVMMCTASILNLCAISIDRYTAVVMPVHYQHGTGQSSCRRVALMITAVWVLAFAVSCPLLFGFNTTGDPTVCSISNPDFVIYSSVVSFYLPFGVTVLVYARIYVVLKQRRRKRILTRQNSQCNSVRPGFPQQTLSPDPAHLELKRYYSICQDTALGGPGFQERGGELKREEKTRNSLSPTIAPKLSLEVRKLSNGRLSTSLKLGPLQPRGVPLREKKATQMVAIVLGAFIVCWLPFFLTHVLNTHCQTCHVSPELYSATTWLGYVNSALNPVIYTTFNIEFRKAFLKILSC
Text: as §1, §2

Dopamine D-4 receptor = target: T4, Dopamine D-4 receptor (Homo sapiens, UniProt P21917); assay: Dopamine D-4 radioligand binding (3H-spiroperidol, human D4-transfected COS-7 cells); conditions: 3H-spiroperidol 0.1 nM, pH 7.4, read-out: Radioligand Binding Results, D4 (apparent Ki)
T4 construct: expressed in transfected cells; host or cells: COS-7 cells
T4 sequence (P21917 1-419): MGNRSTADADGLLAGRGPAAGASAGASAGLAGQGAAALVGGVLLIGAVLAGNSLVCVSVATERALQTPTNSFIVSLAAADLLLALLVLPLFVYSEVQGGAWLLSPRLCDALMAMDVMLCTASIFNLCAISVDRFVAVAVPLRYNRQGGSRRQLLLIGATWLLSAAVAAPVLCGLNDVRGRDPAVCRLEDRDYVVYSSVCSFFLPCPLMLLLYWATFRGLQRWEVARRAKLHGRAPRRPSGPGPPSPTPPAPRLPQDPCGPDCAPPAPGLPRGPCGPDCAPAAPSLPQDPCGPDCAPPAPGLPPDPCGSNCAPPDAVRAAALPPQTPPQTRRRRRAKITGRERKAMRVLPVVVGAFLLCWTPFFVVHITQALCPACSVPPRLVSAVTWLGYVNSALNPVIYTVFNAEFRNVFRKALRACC
Text: as §1, §2

aqueous solubility = assay type: physicochemical; conditions: dihydrochloride salt, at about 25° C.
[1] = titration with 0.2032 Molar sodium hydroxide (pKa); assay type: physicochemical; conditions: dihydrochloride titrated with 0.2032 M NaOH
Description: The compound (5.0 g, 12.1 mmol) from Example 1 was suspended in 75 mL of THF at room temperature, and then 1.97 mL of concentrated hydrochloric acid was slowly added over 30 min affording a gummy solid. Water (5 mL) was added and the gummy solids were stirred for 6 hours to produce a finely divided solid which was granulated overnight. The mixture was filtered and the filter cake was washed with THF (10 mL). The product was dried in vacuo at 25° C. overnight under a nitrogen bleed to give 5.87 g of the title dihydrochloride compound as a tan solid (mp=232-240° C. with decomposition).

N=C(c1ccccc1S)N1CCN(CCc2cc3c(cc2Cl)NC(=O)C3)CC1 [Example 1, 1-[2-(6-chloro-2,3-dihydro-2-oxo-1H-indol-5-yl)ethyl]-4-[imino(2-mercaptophenyl)methyl]piperazine]
IC50 (5HT-2A receptor): 0.35 nM
IC50 (5HT-1A receptor): 12 nM
Ki (Dopamine D-3 receptor): 5.8 nM
Ki (Dopamine D-4 receptor): 59.2 nM

N=C(c1ccccc1S)N1CCN(CCc2cc3c(cc2Cl)NC(=O)C3)CC1 [Example 2, 1-[2-(6-Chloro-2.3-dihydro-2-oxo-1H-indol-5-yl)ethyl]-4-[(imino(2-mercaptophenyl)methyl]piperazinedihydrochloride]
aqueous solubility relative to ziprasidone hydrochloride (times higher) (aqueous solubility): approximately 300 times
solubility (aqueous solubility; water): ~25 mg/mL
pKa ([1]; first equivalence point pH 4.33, read-out: pKa (first)): 3.1
pKa ([1]; second equivalence point pH 8.22, read-out: pKa (second)): 5.5
